The record followed here is article PMC3639963, “A New Class of Small Molecule Inhibitor of BMP Signaling” (PLoS ONE, 2013).

What all share (test): Nanosyn kinase profiling
Holding throughout (assay type): biochemical
What all share (details): read-out: Percentage inhibition; for inhibition at 0.1 µM: 0.1 µM inhibitor; for inhibition at 1 µM: 1 µM inhibitor

The target in one assay is T1, PKCθ (Homo sapiens, UniProt Q04759).
T1 construct: purchased Nanosyn (enzymatic panel); SGC in-house recombinant human kinases (DSF panel); Invitrogen (ALK1-6)
The method, boiled down: (§1)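 Percent inhibition of each kinase was measured with the inhibitor at 0.1 µM and at 1 µM, as part of a 200-kinase human selectivity panel.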

A further assay has as its target T2, SRPK1 (Homo sapiens, UniProt Q96SB4).
T2 construct: purchased Nanosyn (enzymatic panel); SGC in-house recombinant human kinases (DSF panel); Invitrogen (ALK1-6)
The method, boiled down:
as §1

The next assay addresses T3, JAK3 (Homo sapiens, UniProt P52333).
T3 construct: purchased Nanosyn (enzymatic panel); SGC in-house recombinant human kinases (DSF panel); Invitrogen (ALK1-6)
T3 sequence (P52333 1-1124): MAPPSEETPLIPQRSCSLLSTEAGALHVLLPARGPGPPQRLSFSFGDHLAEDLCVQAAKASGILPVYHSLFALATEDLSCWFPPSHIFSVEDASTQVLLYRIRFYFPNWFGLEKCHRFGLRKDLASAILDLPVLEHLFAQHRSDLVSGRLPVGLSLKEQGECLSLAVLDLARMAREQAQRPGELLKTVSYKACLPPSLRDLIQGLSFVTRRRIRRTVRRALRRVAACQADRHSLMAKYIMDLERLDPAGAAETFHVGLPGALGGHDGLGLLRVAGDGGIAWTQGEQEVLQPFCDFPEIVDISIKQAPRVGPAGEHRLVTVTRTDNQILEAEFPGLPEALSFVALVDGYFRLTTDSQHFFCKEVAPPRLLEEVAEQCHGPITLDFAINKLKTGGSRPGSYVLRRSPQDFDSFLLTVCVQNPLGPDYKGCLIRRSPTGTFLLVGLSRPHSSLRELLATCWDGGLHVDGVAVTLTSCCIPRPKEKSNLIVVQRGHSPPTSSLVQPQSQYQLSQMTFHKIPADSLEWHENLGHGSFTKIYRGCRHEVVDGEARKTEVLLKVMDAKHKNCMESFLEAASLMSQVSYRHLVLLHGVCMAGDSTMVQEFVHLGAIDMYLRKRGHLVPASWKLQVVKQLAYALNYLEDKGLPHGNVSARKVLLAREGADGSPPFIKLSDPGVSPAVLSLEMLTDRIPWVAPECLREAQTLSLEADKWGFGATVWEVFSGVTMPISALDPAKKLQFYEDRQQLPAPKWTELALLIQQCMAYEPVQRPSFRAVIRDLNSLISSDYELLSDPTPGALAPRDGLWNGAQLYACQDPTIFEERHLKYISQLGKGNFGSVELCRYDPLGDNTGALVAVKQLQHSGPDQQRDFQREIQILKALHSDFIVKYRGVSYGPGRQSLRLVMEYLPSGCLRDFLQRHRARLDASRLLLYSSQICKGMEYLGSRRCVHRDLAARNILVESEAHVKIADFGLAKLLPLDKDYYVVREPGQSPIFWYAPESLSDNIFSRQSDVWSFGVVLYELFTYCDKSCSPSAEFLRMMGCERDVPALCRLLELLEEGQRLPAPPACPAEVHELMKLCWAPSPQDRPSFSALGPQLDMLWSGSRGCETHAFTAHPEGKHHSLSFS
A digest of the protocol:
as §1

Another assay addresses T4, p38β (Homo sapiens, UniProt Q15759).
T4 construct: purchased Nanosyn (enzymatic panel); SGC in-house recombinant human kinases (DSF panel); Invitrogen (ALK1-6)
A digest of the protocol:
as §1

In the next assay the target is T5, EPHB3 (Homo sapiens, UniProt P54753).
T5 construct: purchased Nanosyn (enzymatic panel); SGC in-house recombinant human kinases (DSF panel); Invitrogen (ALK1-6)
T5 sequence (P54753 34-998): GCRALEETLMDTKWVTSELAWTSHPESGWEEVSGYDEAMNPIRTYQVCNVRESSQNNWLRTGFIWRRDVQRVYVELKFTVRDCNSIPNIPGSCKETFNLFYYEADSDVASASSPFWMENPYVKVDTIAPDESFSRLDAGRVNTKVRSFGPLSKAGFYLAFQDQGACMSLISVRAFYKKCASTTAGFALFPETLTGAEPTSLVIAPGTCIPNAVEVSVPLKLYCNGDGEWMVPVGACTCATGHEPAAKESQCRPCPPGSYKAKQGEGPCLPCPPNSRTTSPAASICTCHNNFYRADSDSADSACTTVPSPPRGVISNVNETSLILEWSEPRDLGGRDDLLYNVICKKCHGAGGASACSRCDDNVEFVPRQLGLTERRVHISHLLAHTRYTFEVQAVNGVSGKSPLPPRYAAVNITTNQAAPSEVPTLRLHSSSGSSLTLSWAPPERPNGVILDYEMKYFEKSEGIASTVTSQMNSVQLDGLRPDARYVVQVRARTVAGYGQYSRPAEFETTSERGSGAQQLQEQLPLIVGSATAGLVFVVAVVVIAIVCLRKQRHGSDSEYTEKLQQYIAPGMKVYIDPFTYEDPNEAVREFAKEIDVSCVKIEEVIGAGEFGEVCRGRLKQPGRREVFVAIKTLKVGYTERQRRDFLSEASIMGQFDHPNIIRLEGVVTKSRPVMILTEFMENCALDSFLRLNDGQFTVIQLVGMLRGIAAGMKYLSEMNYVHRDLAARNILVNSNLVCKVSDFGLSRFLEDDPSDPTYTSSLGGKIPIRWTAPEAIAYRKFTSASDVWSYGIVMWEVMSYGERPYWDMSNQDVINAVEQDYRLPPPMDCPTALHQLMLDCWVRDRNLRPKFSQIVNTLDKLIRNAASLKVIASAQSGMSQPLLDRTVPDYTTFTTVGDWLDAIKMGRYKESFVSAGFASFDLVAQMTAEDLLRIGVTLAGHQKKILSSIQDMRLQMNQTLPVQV
The method, boiled down: as §1

The target in the next assay is T6, INSR (Homo sapiens, UniProt P06213).
T6 construct: purchased Nanosyn (enzymatic panel); SGC in-house recombinant human kinases (DSF panel); Invitrogen (ALK1-6)
A digest of the protocol: as §1

For another assay, the target named is T7, RSK4 (Homo sapiens, UniProt Q9UK32).
T7 construct: purchased Nanosyn (enzymatic panel); SGC in-house recombinant human kinases (DSF panel); Invitrogen (ALK1-6)
The method, boiled down: as §1

For the next assay, the target named is T8, NEK7 (Homo sapiens, UniProt Q8TDX7).
T8 construct: purchased Nanosyn (enzymatic panel); SGC in-house recombinant human kinases (DSF panel); Invitrogen (ALK1-6)
A digest of the protocol: as §1

A further assay concerns the target T9, KIT (Homo sapiens, UniProt P10721).
T9 construct: purchased Nanosyn (enzymatic panel); SGC in-house recombinant human kinases (DSF panel); Invitrogen (ALK1-6)
A digest of the protocol: as §1

A further assay addresses T10, EPHA2 (Homo sapiens, UniProt P29317).
T10 construct: purchased Nanosyn (enzymatic panel); SGC in-house recombinant human kinases (DSF panel); Invitrogen (ALK1-6)
The method, boiled down: as §1

A further assay addresses T11, AKT2 (Homo sapiens, UniProt P31751).
T11 construct: purchased Nanosyn (enzymatic panel); SGC in-house recombinant human kinases (DSF panel); Invitrogen (ALK1-6)
The method, boiled down: as §1

T1 sequence (Q04759 whole entry): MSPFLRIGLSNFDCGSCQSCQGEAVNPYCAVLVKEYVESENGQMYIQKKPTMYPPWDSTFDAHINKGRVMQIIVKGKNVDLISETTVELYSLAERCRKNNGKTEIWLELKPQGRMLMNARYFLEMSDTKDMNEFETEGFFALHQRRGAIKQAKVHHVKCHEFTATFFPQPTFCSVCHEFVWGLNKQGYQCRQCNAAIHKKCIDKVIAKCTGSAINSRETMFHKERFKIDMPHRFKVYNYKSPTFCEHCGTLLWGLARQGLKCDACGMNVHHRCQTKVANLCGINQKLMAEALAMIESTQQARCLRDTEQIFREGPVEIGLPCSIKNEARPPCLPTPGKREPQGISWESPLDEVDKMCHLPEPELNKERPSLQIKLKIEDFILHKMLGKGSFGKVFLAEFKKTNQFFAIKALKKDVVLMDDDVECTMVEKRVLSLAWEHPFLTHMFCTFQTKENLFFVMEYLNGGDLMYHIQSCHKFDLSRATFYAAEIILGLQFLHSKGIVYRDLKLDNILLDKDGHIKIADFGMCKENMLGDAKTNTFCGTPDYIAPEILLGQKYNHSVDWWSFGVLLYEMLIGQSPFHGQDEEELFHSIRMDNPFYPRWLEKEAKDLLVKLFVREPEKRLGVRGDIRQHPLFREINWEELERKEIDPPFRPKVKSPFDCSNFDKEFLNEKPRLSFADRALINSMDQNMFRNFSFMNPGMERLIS
T7 sequence (Q9UK32 whole entry): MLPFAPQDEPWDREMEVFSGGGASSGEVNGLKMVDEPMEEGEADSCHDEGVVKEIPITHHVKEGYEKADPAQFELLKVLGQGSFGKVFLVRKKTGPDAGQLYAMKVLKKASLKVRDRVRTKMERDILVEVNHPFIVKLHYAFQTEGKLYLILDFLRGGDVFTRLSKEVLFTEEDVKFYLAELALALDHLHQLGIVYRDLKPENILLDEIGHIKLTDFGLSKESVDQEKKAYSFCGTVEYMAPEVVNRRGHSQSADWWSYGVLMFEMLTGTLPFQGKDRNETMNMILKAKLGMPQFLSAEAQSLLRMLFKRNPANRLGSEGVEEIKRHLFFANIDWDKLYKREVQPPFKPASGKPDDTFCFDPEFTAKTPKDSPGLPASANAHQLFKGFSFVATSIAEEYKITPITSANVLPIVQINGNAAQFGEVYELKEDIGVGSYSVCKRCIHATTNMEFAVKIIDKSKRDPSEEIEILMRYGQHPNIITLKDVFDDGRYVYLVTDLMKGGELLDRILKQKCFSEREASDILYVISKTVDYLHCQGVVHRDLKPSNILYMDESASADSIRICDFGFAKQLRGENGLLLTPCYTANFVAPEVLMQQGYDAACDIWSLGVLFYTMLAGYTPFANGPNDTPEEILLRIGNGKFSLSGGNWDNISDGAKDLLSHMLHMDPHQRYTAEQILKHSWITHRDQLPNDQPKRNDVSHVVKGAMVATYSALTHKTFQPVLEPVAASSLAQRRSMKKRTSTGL
T11 sequence (P31751 whole entry): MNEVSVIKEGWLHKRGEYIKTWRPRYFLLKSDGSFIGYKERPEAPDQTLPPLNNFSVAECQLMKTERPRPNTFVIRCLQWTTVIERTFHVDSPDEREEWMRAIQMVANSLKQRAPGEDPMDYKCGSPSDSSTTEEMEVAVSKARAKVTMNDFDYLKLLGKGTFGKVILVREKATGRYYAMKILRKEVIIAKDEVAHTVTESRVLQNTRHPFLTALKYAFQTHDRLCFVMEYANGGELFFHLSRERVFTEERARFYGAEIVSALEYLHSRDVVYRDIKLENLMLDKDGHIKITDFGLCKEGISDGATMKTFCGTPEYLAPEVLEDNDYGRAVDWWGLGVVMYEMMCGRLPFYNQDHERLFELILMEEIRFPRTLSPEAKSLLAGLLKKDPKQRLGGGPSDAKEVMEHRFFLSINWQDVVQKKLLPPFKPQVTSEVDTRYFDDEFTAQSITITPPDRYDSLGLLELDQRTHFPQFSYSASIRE
T8 sequence (Q8TDX7 whole entry): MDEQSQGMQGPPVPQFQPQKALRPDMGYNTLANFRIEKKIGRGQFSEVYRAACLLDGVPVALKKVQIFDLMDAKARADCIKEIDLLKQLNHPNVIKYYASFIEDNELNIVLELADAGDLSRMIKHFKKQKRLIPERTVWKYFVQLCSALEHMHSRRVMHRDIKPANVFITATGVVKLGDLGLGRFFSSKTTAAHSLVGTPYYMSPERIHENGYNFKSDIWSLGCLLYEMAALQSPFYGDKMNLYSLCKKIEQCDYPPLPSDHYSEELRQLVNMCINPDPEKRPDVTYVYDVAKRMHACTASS
T10 sequence (P29317 24-976): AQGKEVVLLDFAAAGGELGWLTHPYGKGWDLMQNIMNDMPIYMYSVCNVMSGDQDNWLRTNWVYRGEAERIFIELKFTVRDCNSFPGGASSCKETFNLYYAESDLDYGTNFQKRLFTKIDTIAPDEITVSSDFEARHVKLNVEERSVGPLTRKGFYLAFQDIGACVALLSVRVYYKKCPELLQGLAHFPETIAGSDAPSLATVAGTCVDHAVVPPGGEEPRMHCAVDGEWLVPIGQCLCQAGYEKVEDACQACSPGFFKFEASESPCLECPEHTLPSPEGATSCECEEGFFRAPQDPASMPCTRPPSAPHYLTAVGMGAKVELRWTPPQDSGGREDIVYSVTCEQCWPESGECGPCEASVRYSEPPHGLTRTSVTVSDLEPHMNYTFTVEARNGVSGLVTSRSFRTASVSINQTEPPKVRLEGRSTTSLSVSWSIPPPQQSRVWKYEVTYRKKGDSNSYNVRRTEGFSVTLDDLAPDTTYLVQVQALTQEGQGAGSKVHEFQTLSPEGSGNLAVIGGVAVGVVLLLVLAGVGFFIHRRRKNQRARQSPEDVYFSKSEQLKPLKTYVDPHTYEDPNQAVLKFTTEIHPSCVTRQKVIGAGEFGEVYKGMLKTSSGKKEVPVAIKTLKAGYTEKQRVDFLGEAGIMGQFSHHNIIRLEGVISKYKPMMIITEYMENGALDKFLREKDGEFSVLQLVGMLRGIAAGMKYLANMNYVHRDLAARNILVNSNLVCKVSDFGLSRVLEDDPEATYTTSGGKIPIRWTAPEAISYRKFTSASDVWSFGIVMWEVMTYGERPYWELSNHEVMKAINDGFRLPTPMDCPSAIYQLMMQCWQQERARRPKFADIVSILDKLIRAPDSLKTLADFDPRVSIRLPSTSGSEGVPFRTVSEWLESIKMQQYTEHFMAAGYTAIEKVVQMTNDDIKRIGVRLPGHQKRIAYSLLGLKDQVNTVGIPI
T9 sequence (P10721 26-976): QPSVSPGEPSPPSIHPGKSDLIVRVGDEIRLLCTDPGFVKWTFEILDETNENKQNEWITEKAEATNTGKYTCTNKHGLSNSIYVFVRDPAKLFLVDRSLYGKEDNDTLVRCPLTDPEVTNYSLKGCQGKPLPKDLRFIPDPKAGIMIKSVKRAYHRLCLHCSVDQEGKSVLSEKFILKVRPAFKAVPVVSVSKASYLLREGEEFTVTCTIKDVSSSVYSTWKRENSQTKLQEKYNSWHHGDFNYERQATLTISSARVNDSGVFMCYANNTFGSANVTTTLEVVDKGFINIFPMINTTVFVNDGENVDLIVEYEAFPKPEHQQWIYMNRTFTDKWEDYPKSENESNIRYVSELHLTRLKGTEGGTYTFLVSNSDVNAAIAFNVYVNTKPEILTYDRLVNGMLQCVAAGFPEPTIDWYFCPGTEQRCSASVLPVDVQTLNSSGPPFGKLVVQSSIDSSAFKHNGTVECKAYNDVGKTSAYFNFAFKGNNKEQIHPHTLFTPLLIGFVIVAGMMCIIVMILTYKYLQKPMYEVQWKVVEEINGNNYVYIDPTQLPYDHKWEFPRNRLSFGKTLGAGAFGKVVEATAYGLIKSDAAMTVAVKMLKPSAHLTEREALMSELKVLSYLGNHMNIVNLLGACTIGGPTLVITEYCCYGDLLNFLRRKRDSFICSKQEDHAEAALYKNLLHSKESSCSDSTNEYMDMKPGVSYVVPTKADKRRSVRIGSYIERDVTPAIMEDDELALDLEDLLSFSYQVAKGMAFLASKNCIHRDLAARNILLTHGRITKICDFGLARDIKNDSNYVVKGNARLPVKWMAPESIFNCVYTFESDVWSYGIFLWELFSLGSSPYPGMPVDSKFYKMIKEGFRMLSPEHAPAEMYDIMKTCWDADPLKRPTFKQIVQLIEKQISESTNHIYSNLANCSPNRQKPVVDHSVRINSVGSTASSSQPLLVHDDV
T2 sequence (Q96SB4 whole entry): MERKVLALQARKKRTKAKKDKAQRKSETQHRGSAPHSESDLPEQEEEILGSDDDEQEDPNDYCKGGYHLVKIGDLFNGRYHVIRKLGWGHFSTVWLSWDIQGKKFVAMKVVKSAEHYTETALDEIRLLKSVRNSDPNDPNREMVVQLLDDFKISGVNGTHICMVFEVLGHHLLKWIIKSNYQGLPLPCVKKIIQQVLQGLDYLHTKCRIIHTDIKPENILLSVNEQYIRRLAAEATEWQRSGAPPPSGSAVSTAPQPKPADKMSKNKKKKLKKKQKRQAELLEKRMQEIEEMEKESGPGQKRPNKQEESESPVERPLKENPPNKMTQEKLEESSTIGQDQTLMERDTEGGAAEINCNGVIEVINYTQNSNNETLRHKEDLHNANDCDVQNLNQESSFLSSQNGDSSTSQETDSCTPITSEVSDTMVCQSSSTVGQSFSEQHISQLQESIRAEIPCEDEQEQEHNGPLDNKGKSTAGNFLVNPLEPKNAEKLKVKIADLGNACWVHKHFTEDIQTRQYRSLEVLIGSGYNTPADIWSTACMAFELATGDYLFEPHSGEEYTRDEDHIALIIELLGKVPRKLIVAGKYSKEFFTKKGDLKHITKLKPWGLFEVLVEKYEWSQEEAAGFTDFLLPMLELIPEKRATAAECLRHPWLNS

As for `COc1cc(-c2cc(-c3cccc(O)c3)cnc2N)cc(OC)c1OC` [K02288, 3-[6-amino-5-(3,4,5-trimethoxy-phenyl)-pyridin-3-yl]-phenol], the inhibition (commonly the relative decrease from the control value, in per cent) at 0.1 µM at PKCθ is 0%; on SRPK1, 3.2%; at JAK3, 5.6%; at p38β, 0%; on EPHB3, -2%; at INSR, -4%. Also, the inhibition at 0.1 µM is 0.1% on RSK4; 0.2% on NEK7; 4% on KIT; -2% on EPHA2; -2% on AKT2. Moreover, the inhibition at 1 µM on PKCθ is 0.1%; at SRPK1, 2.7%; at JAK3, 2.3%; on p38β, 9.7%; on EPHB3 it was -1%; at INSR, 0.7%. Also, the inhibition at 1 µM was 1% at RSK4; -3% on NEK7; 9.2% at KIT; 3% on EPHA2; -1% on AKT2.
On to `c1ccc2c(-c3cnn4cc(-c5ccc(N6CCNCC6)cc5)cnc34)ccnc2c1` [LDN-193189], for which the inhibition at 0.1 µM on PKCθ is 1.4%; on SRPK1 it was -1%; at JAK3 it was 0%; on p38β, 0.4%; at EPHB3, 5.6%; at INSR, 3.8%. Moreover, the inhibition at 0.1 µM on RSK4 is 0.8%; at NEK7, 7.9%; on KIT, 7%; on EPHA2, -2%; on AKT2 it was 1%. For the same compound, the inhibition at 1 µM is 1.3% on PKCθ; -2% on SRPK1; 0.1% at JAK3; 1.5% at p38β; 4.3% at EPHB3; 4.5% on INSR. The inhibition at 1 µM is 3.8% on RSK4; 1.7% on NEK7; 41% at KIT; -3% on EPHA2; 1.8% at AKT2.
